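Grown in 96-well plates, cells were treated for 48 hours with each compound at five concentrations. Insufficient inhibition: endpoint recorded as highest concentration tested. GI50: concentration for 50% inhibition of growth. TGI: total growth inhibition.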 Some results are limits rather than exact numbers.

In PubChem BioAssay (NCI) one finds TGI and GI50 data, which are given here for 22 compounds.

What all share (experiment): inhibition of tumour cell growth, NCI panel, 48 h
The subject of assay [1] is 786-0 renal.
Assay [2] has as its system DMS 114 small cell lung.
For assay [3], the system named is DMS 273 small cell lung.
For assay [4], the system named is KM20L2 colon.
The test system of assay [5] is LXFL 529 NSCLC.
For assay [6], the system named is M19-MEL melanoma.
Assay [7] concerns RXF-631 renal.
Assay [8] has as its system XF 498 CNS.
The subject of assay [9] is BT-549 breast.
Assay [10] concerns MDA-MB-231 breast.
In assay [11] the test system is MDA-N.
The subject of assay [12] is NCI/ADR-RES ovarian.
The test system of assay [13] is PC-3 prostate.
The test system of assay [14] is T-47D breast.
Assay [15] has as its system SNB-78 CNS.

Consider `CCN(CC)CCNc1ccc2nnn3c4ccccc4c(=O)c1c23`, for which the TGI in assay [1] stood at 20.7 µM; in [2], 24.2 µM; in [3] it was 14.3 µM; in assay [4], 15.1 µM; in assay [5], 21.8 µM; in [6] it was 17.2 µM. The TGI came to 13.7 µM in assay [7] and 13.6 µM in assay [8].
Consider `Oc1cc(CN2COc3ccccc32)c(O)cc1CNC1CCCCC1`, for which the TGI in [1] was 34 µM; in assay [9], 90.9 µM; in assay [10] it was 41.8 µM; in assay [11], 32.2 µM; in assay [12], more than 100 µM; in assay [13] it was 42 µM. The TGI in assay [14] was found to be 64.7 µM.
Regarding `NC(N)=NC(N)=Nc1ccccc1` (tested in a mixture with another compound), the TGI in assay [1], in assay [9], in assay [10], in [11], in assay [12] and in assay [13] was more than 100 µM each time. The TGI in assay [14] worked out at 81.4 µM.
`Cc1ccc(C2CC(c3cccc(Nc4ccncc4)c3)=NN2c2ccccc2)cc1` (configuration not stated): the values for the GI50 in assay [9], in assay [13] and in [14] were 1.81 µM, 1.59 µM and 2.02 µM, respectively. The values for the TGI in assay [9], in assay [13] and in assay [14] were 3.37 µM, 3.24 µM and 4.85 µM, respectively.
Take `C=CCc1cccc(/C=N\N=C(/N)NO)c1O`: the TGI was 12.9 µM in [2]; 16.5 µM in assay [3]; 31.8 µM in assay [4]; more than 29.3 µM in assay [12]; more than 88.1 µM in assay [15]; 9.65 µM in [8].
Turning to `Nc1ccccc1N=Nc1c(S(=O)(=O)O)cc2cc(S(=O)(=O)O)cc(O)c2c1O`, the TGI in assay [1], in assay [9], in [10], in assay [11], in assay [12] and in assay [13] was more than 100 µM throughout. In [14], this compound registered a TGI of more than 100 µM.
In the case of `CC1=CC(C)(C)Nc2ccc(CSc3ccccc3)cc21`, the TGI in assay [1] is 72.1 µM; in assay [9] it was more than 100 µM; in assay [10], 94.1 µM; in assay [11], 69.9 µM; in assay [12], more than 100 µM; in assay [13] it was 89.8 µM.
For `CC(C)CN(CC#N)CC(C)C`, the TGI in assay [1], in assay [9], in [10], in [11], in assay [12] and in assay [13] was more than 100 µM each time. In [14], this compound displayed a TGI of more than 100 µM.
As to `CC(=O)N/C(=C\c1ccc(/C=C(\NC(C)=O)C2=NC3C(=O)c4ccccc4C(=O)C3N2)cc1)C1=NC2C(=O)c3ccccc3C(=O)C2N1` (configuration not stated), the TGI in [2], in assay [3], in assay [4], in assay [5], in assay [6] and in assay [7] was more than 100 µM in each case. Moreover, the TGI in assay [15] and in assay [8] was more than 100 µM each time.
Consider `Cc1c2c(ccc3ccccc32)c[n+]2ccccc12`, for which the TGI in [1] was more than 100 µM; in [2], 19.8 µM; in assay [3], 28.5 µM; in assay [4], 77 µM; in assay [5] it was 28.3 µM.
Turning to `C[N+](C)([O-])Cc1cc(-c2ccccc2)ccc1O`, the TGI in assay [1], in assay [9], in assay [10], in assay [12], in [13] and in assay [14] was more than 100 µM each time.
As for `O=c1nc2sc3ccc4ccccc4c3n2[nH]c1=O`, the TGI in assay [2] is more than 100 µM; in assay [3], more than 100 µM; in [4], 99 µM; in assay [5] it was more than 100 µM; in assay [15] it was more than 100 µM.
As to `O=C(O)Cn1c2c(c3c(O)cccc31)C(=O)c1ccccc1-2`, the GI50 is 12.8 µM in assay [9], more than 100 µM in assay [10], more than 100 µM in assay [12] and more than 100 µM in [14]. For the same compound, the TGI in [9], in assay [10], in [12] and in assay [14] was more than 100 µM throughout.
For the compound `C[C@]12CC[C@@H]3c4ccc(OCCN5CCCC5)cc4CC[C@H]3[C@@H]1CCC2=O`, the TGI in assay [10] was 68.7 µM; in [11], 64.3 µM; in assay [12] it was more than 100 µM; in [13] it was more than 100 µM; in [14] it was more than 100 µM.
For the compound `CCCCN=C1OCc2[nH][nH]c(=O)c21`, the TGI in assay [2], in assay [3], in assay [4], in [5], in assay [6] and in assay [7] was more than 100 µM throughout. The TGI in [15] and in [8] was more than 100 µM in each case.
Turning to `[O-][n+]1c(-c2ccccc2)c2nc3ccccc3nc2c2ccccc21`, the TGI in assay [1] is more than 100 µM; in assay [2], more than 100 µM; in assay [3], more than 100 µM; in [4], more than 100 µM; in [5] it was 93.9 µM; in assay [6], more than 100 µM. Further, the figures for the TGI in assay [7], in [15] and in [8] were more than 100 µM, 92.4 µM and more than 100 µM, respectively.
With `O=C(O)c1nccnc1C(=O)O`, the TGI in [1], in assay [2], in [3], in [4], in [5] and in assay [6] was more than 100 µM each time. The TGI in assay [7] and in assay [8] was more than 100 µM in each case.
For `CCCCCCCCCCCCCCCC(=O)OC1C(O)C(CO)OC(OC)C1NC(=O)N(CCCl)N=O` (configuration not stated), the TGI in assay [2] was found to be 28 µM; in assay [3] it was 29.4 µM; in [4] it was 32.4 µM; in assay [5], 25.1 µM; in assay [6], 32.3 µM; in assay [7], 32 µM. The TGI was found to be 40.2 µM in assay [15] and 30.8 µM in [8].
Consider `CCCOC1OC(CS(=O)(=O)O)C(O)C(O)C1O` (configuration not stated), for which the TGI in assay [9], in [11], in assay [12], in assay [13] and in [14] was more than 100 µM in each case.
On to `CN(C)C(=O)C1CCN(Cc2c[nH]c3ccccc23)CC1`, for which the TGI in assay [1], in assay [9], in assay [10], in [11], in assay [12] and in assay [13] was more than 100 µM in each case. The same compound gave a TGI in assay [14] of more than 100 µM.
For `CCOC(=O)NC(Nc1ccc(Cl)cn1)(C(F)(F)F)C(F)(F)F`, the TGI in assay [9], in assay [10], in assay [11] and in assay [14] was more than 100 µM each time.
For the compound `N#CCCN(CCC#N)c1ccc(/C=C2\N=C(c3cc([N+](=O)[O-])ccc3Cl)N(NC(=O)CC(=O)Nc3ccccc3Cl)C2=O)cc1`, the TGI in assay [2] was more than 100 µM; in assay [3], more than 100 µM; in assay [4], 34.5 µM; in [5] it was more than 100 µM; in assay [6] it was more than 100 µM; in [15], more than 100 µM. This compound showed a TGI in assay [8] of more than 100 µM.
